The target in the experiment is Platelet-derived growth factor receptor beta (Homo sapiens, UniProt P09619). Briefly: The rest of the stock solutions was storaged at ⿿20° C. after subpackage.
Sequence of Platelet-derived growth factor receptor beta (P09619 whole entry): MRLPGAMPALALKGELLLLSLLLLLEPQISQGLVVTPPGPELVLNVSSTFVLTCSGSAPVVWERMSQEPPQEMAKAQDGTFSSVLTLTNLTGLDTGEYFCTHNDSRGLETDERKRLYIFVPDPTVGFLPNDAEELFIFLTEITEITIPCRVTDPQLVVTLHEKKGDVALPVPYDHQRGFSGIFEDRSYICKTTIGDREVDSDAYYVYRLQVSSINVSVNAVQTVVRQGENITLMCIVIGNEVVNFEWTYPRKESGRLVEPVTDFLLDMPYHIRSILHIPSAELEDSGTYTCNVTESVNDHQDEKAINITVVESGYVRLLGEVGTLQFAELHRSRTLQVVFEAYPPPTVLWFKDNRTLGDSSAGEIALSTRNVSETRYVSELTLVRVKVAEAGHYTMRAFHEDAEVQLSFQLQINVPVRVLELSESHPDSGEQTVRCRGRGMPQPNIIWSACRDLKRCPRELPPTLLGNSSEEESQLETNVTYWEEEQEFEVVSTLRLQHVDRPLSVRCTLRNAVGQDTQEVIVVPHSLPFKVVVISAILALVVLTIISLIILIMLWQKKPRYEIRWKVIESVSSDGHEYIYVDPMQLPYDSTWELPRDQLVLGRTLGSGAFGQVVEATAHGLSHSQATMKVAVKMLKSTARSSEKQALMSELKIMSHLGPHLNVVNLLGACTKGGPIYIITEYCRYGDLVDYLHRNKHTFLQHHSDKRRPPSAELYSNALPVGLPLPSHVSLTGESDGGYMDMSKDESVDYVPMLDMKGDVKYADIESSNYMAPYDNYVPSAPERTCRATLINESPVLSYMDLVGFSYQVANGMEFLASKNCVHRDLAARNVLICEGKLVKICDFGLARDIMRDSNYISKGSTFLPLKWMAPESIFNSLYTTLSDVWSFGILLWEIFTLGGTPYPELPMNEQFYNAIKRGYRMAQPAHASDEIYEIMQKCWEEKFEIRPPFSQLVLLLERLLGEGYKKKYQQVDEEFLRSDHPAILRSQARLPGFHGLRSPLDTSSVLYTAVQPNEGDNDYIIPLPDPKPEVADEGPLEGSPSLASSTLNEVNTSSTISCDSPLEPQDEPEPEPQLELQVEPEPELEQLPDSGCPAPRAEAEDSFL
Regarding `Cc1ccc(F)c(NC(=O)Nc2ccc(-c3ccc(OCCCN4CCCC4)c4[nH]nc(N)c34)c3ccccc23)c1`, the IC50 (in general, the concentration that inhibits the measured activity by half) was 0.0163 µM.

`Cc1cccc(NC(=O)Nc2ccc(-c3ccc(OCCCN4CCCC4)c4[nH]nc(N)c34)c3ccccc23)c1` yielded an IC50 of 0.0454 µM.

In turn, `Cc1ccc(F)c(NC(=O)Nc2ccc(-c3ccc(OCCC(C)(C)N)c4[nH]nc(N)c34)c3ccccc23)c1` came in with an IC50 of 0.106 µM.

Take `Cc1cccc(NC(=O)Nc2ccc(-c3cncc4[nH]nc(N)c34)c3ccccc23)c1`: 0.0067 µM corresponded to half-maximal inhibition (IC50).

Take `Cc1ccc(F)c(NC(=O)Nc2ccc(-c3cncc4[nH]nc(N)c34)c3ccccc23)c1`: the IC50 amounted to 0.0254 µM.

As for `Cc1cccc(NC(=O)Nc2ccc(-c3ccc(OCCC(C)(C)N)c4[nH]nc(N)c34)c3ccccc23)c1`, the IC50 amounted to 0.155 µM.

For the origin of these results see ChEMBL document CHEMBL3886965, “Naphthylurea derivatives and medical applications thereof” (2016).
